Where two headings read alike, the source gives them in different places.
Assays:
corticosterone = test: Serum corticosterone reduction after oral dosing in rats; type: in vivo; settings: 200 mg drug/kg body weight, within 4 hours of oral dosing
testosterone = test: Testosterone suppression after single dose in rats; type: in vivo
[1] = normal volunteers, 200 mg dose of the racemic mixture, oral; cited from earlier work
[2] = Oral pharmacokinetics in dogs
plasma cholesterol = test: Plasma cholesterol suppression in rats; type: in vivo; settings: 200 mg drug/kg body weight
hepatic cardiolipin = test: Measurement of hepatic cardiolipin following 91 days dosing in Beagle dogs; type: in vivo; settings: male Beagle dogs, vs placebo
Experimental: Male Beagle dogs were treated with empty gelatin capsules (Placebo) or gelatin capsules containing sufficient 2S,4R enantiomer of ketoconazole to provide a dose of 20 mg/kg body weight. After 91 days of therapy, the amount of cardiolipin present in the livers of the dogs was determined. The amount of cardiolipin with fatty acids of the different indicated classes was determined independently. SFA, saturated fatty acids; MUFA, […] fatty acids; PUFA, poly-unsaturated fatty acid; n3, fatty acids in which the first double bond is at C3; n6, fatty acids in which the first double bond is at C6; n9, fatty acids in which the first double bond is at C9.
Male Beagle dogs were treated with empty gelatin capsules (Placebo) or gelatin capsules containing sufficient 2S,4R enantiomer of ketoconazole to provide a dose of 20 mg/kg body weight. After 91 days of therapy, the amount of cardiolipin present in the livers of the dogs was determined. The amount of cardiolipin with fatty acids of the different indicated classes was determined independently. The different classes are arranged according to the proportion that they are found in the placebo treated animals.
The effect of the 2S,4R enantiomer of ketoconazole enantiomers on cardiolipin levels in Beagle dogs was determined. The dogs were approximately 6-7 months of age at the initiation of the experiment and weighed 8-10 kg. To generate the results shown in FIGS. 1 and 2, eight male beagle dogs were used. Four of these dogs were dosed daily with an empty capsule, and four dogs were dosed with a gelatin capsule containing sufficient 2S,4R enantiomer of ketoconazole for each dog to receive 20 mg/kg body weight of the 2S,4R enantiomer of ketoconazole. The capsules were prepared weekly, placed in a labeled pill bottle and stored at 23° C.±3° C. until dispensed for dosing. […] Lipid content of the livers was determined using a combination of high pressure liquid chromatography (HPLC) and mass spectrometry. […]

[3] = Toxicology of DIO-902 in dogs, oral dosing for 28 days; settings: oral doses up to 20 mg/kg/day for 28 days
[4] = in vivo, cited from earlier work
[5] = cited from earlier work
[6] = patients with Cushing's syndrome

SMILES: CC(=O)N1CCN(c2ccc(OC[C@@H]3CO[C@@](Cn4ccnc4)(c4ccc(Cl)cc4Cl)O3)cc2)CC1 (relative stereo) [DIO-902, 2S,4R cis-1-acetyl-4-[4-[[2-(2,4-dichlorophenyl)-2-(1H-imidazol-1-ylmethyl)-1,3-dioxolan-4-yl]methoxyl]phenyl]piperazine]
- serum corticosterone level (corticosterone): 25 % of basal
- time for testosterone levels to return to normal (testosterone; 200 mg drug/kg body weight): ≤ 8 h
- time to testosterone suppression after dosing (testosterone; 200 mg drug/kg body weight): within four hours
- testosterone level (testosterone; single dose 200 mg drug/kg body weight): 10 % of basal
- maximum plasma concentration [1]: approximately 3.6 μg/mL
- time of maximum plasma concentration [1]: 2 h
- oral availability [2]: orally available
- plasma cholesterol (plasma cholesterol): suppresses plasma cholesterol
- amount of cardiolipin in the livers as a function of the liver wet weight (hepatic cardiolipin; 20 mg/kg body weight daily in gelatin capsule): increased cardiolipin levels
- hepatic cardiolipin by fatty acid carbon chain length and bond number, FIG. 2 (hepatic cardiolipin; 20 mg/kg): able to increase the levels of cardiolipin that contain fatty acids of a wide variety of carbon chain length with different numbers of carbon bonds
- hepatic cardiolipin by fatty acid class (SFA, MUFA, PUFA, n3, n6, n9), FIG. 1 (hepatic cardiolipin; 20 mg/kg): able to increase the levels of cardiolipin that contain both saturated and unsaturated fatty acids
- body weight [3]: reduction in body weight
- cholesterol [3]: trend to a decrease in cholesterol
- food intake [3]: reduction in food intake
- other serum chemistry and hematological parameters [3]: no noted changes

SMILES: CC(=O)N1CCN(c2ccc(OCC3COC(Cn4ccnc4)(c4ccc(Cl)cc4Cl)O3)cc2)CC1 (racemic) [racemic ketoconazole, 1-acetyl-4-[4-[[2-(2,4-dichlorophenyl)-2-[(1H-imidazol-1-yl)-methyl]-1,3-dioxolan-4-yl]methoxy]phenyl]piperazine]
- 1,25 dihydroxy Vitamin D [4]: reduces
- hepatotoxicity [4]: associated with hepatotoxicity
- testosterone [4]: reduces
- hepatotoxicity ([4]; listed as racemic mixture): can cause hepatoxicity
- cortisol synthesis ([5]; human, in vivo): inhibits cortisol synthesis
- plasma cortisol ([5]; human, in vivo): decrease plasma cortisol
- cholesterol levels in humans ([5]; humans (Sonino et al. 1991; Gylling et al. 1993)): lower cholesterol levels
- blood pressure [5, 6]: reduces
- cholesterol [5, 6]: reduces
- glucose [5, 6]: reduces

— US20090298848A1, “Methods and Compositions for Treating Barth Syndrome, Cardiomyopathy, Mitochondrial Diseases and Other Conditions” (CORTENDO INVEST AB,, priority 2006, published 2009)
